Consider two molecules from US12637499B2, “Adrenomedullin analog, method for producing the same, and pharmaceutical use thereof” (priority 2020, dated 2026).

Bridges are numbered along the chain shown (N, C = ends). Where no end group is shown, it is not given here.

A short description of series [1]: in vitro. The settings on record: serum, pH 7.1. The protocol: (§1) After the lapse of a predetermined time, a 30-μl portion was taken out of the reaction solution, transferred into 170 μl of 0.1% aqueous solution of trifluoroacetic acid (TFA), and stored at −80° C. until analysis.
(§2) Quantitative analysis was performed for AM contained in the thus-obtained samples of a reaction mixture with serum or plasma by using specific fluoroimmunoassay (Tosoh Corporation) with two antibodies differing in their recognition sites. […] In the figure, the abscissa represents reaction time (min), and the ordinate represents concentration of AM (UM).
In the figure, the abscissa represents reaction time (min), and the ordinate represents concentration of AM or an AM analog (μM).
In the figure, the abscissa represents the type of AM or an AM analog, and the ordinate represents residual rates of AM or an AM analog (%).

Series [2] in a line: in vitro. The note with it: plasma, pH 7.1. The protocol:
as §1, §2

Series [3] is described as follows: in vitro. The note with it: Experiment VIII; 10^−7 M, 37° C.; 1 hour after the beginning of reaction.
Series [4] is described as follows: in vivo. The settings on record: male, Wistar, rat, plasma, sc, 50 nmol/kg.
Protocol: Eight-week-old male Wistar rats were purchased from Charles River Laboratories Japan, Inc. The rats were grown with normal feeds in the absence of specific pathogens under cycles of a 12-hour light period and a 12-hour dark period. […] To determine plasma AM concentrations, 50 nmol/kg of AM or an AM analog was subcutaneously administered. A peripheral blood sample was collected from the tail vein into a test tube (containing 21 μg of aprotinin and 0.3 mg of EDTA-2Na) at predetermined times (0, 15, 30, 60, and 120 minutes after administration). The test tube was centrifuged at 1,700×g to afford plasma.
For series [5], the target named is AM type 1 receptor (AMI receptor) (UniProt Q16602 23-461; O60895 43-175, limits assumed). Briefly: cell-based or functional assay.
AM type 1 receptor (AMI receptor), sequence (Q16602 23-461 limits assumed, chain 1 of 2): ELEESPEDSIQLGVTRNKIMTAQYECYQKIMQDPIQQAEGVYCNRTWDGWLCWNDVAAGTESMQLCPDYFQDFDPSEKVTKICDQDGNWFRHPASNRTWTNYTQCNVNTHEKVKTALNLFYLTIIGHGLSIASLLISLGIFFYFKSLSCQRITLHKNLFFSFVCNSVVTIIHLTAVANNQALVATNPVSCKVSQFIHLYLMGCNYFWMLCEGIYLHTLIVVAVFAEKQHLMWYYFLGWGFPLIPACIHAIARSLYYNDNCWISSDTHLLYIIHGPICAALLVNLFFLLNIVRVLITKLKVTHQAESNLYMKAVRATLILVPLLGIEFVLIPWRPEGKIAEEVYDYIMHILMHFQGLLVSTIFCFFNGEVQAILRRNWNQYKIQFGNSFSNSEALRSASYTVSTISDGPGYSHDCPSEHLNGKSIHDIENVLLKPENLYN
AM type 1 receptor (AMI receptor), sequence (O60895 43-175 limits assumed, chain 2 of 2): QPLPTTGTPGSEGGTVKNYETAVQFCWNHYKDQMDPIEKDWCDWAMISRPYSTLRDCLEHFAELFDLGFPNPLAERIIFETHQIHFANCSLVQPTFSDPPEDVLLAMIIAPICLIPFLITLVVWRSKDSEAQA

By amount remaining is commonly meant what is left of the initial amount, in per cent. A low value points to more turnover. As a reminder, the half-life is the time needed for the level to fall by half in the phase considered. Low readings indicate fast loss, high ones slow loss. Consider `CC[C@H](C)[C@H](NC(=O)[C@H](CCC(N)=O)NC(=O)[C@H](Cc1c[nH]cn1)NC(=O)[C@H](C)NC(=O)[C@H](CC(C)C)NC(=O)[C@H](CCCCN)NC(=O)[C@H](CCC(N)=O)NC(=O)[C@@H](NC(=O)[C@@H](NC(=O)[C@@H]1CSSC[C@H](NC(=O)CNC(=O)[C@H](Cc2ccccc2)NC(=O)[C@H](CO)NC(=O)[C@H](CCCNC(=N)N)NC(=O)[C@H](CC(C)C)NC(=O)CNC(=O)[C@H](CCC(N)=O)NC(=O)[C@H](Cc2ccccc2)NC(=O)[C@H](CC(N)=O)NC(=O)[C@H](CC(N)=O)NC(=O)[C@H](CCSC)NC(=O)[C@H](CO)NC(=O)[C@H](CCC(N)=O)NC(=O)[C@H](CCCNC(=N)N)NC(=O)[C@@H](N)Cc2ccc(O)cc2)C(=O)N[C@@H](CCCNC(=N)N)C(=O)N[C@@H](Cc2ccccc2)C(=O)NCC(=O)N[C@@H]([C@@H](C)O)C(=O)N1)[C@@H](C)O)C(C)C)C(=O)N[C@@H](Cc1ccc(O)cc1)C(=O)N[C@@H](CCC(N)=O)C(=O)N[C@@H](Cc1ccccc1)C(=O)N[C@H](C(=O)N[C@@H](CC(=O)O)C(=O)N[C@@H](CCCCN)C(=O)N[C@@H](CC(=O)O)C(=O)N[C@@H](CCCCN)C(=O)N[C@@H](CC(=O)O)C(=O)N[C@@H](CC(N)=O)C(=O)N[C@H](C(=O)N[C@@H](C)C(=O)N1CCC[C@H]1C(=O)N[C@@H](CCCNC(=N)N)C(=O)N[C@@H](CO)C(=O)N[C@@H](CCCCN)C(=O)N[C@H](C(=O)N[C@@H](CO)C(=O)N1CCC[C@H]1C(=O)N[C@@H](CCC(N)=O)C(=O)NCC(=O)N[C@@H](Cc1ccc(O)cc1)C(N)=O)[C@@H](C)CC)C(C)C)[C@@H](C)O` [hAM(1-52), YRQSMNNFQGLRSFGCRFGTCTVQKLAHQIYQFTDKDKDNVAPRSKISPQGY-CONH2, reference compound], for which the results for the fraction remaining at 4 h in series [1] and in series [2] were 0.2% and 85%, respectively. In addition, the “presence in reaction mixture with human serum” value in series [3] was “substantially disappeared”. This molecule had a half-life in series [4] of 1.23 h.

B1: [Phe-44]hAM(13-52) (peptide)
peptide: SFGCRFGTCTVQKLAHQIYQFTDKDKDNVAPFSKISPQGY-NH2
modifications: disulfide 4-9; N-terminus assumed
SMILES: CC[C@H](C)[C@H](NC(=O)[C@H](CCC(N)=O)NC(=O)[C@H](Cc1c[nH]cn1)NC(=O)[C@H](C)NC(=O)[C@H](CC(C)C)NC(=O)[C@H](CCCCN)NC(=O)[C@H](CCC(N)=O)NC(=O)[C@@H](NC(=O)[C@@H](NC(=O)[C@@H]1CSSC[C@H](NC(=O)CNC(=O)[C@H](Cc2ccccc2)NC(=O)[C@@H](N)CO)C(=O)N[C@@H](CCCNC(=N)N)C(=O)N[C@@H](Cc2ccccc2)C(=O)NCC(=O)N[C@@H]([C@@H](C)O)C(=O)N1)[C@@H](C)O)C(C)C)C(=O)N[C@@H](Cc1ccc(O)cc1)C(=O)N[C@@H](CCC(N)=O)C(=O)N[C@@H](Cc1ccccc1)C(=O)N[C@H](C(=O)N[C@@H](CC(=O)O)C(=O)N[C@@H](CCCCN)C(=O)N[C@@H](CC(=O)O)C(=O)N[C@@H](CCCCN)C(=O)N[C@@H](CC(=O)O)C(=O)N[C@@H](CC(N)=O)C(=O)N[C@H](C(=O)N[C@@H](C)C(=O)N1CCC[C@H]1C(=O)N[C@@H](Cc1ccccc1)C(=O)N[C@@H](CO)C(=O)N[C@@H](CCCCN)C(=O)N[C@H](C(=O)N[C@@H](CO)C(=O)N1CCC[C@H]1C(=O)N[C@@H](CCC(N)=O)C(=O)NCC(=O)N[C@@H](Cc1ccc(O)cc1)C(N)=O)[C@@H](C)CC)C(C)C)[C@@H](C)O
On to B1, for which the “logarithmic values of 50%-effective concentration (pEC50) for intracellular cAMP concentration-increasing activity” value in series [5] turned out to be 8.29 pEC50.
